From patent US20050038022A1, “Method for treatment of cancer and compositions for use therein” (Unisearch Limited, priority 2001, published 2005)

Tests used:
HepG2 [1] = test: Combination with methimazole (MT), HepG2 growth; assay type: cell-based; conditions: HepG2, albendazole alone 0.25, 0.1 and 0.01uM, 5 days
Procedure: The effect of inhibition of metabolism of albendazole on its antiproliferative activity was investigated using […] and the methimazole as an inhibitor of albendazole
5000 cells each of HepG2 and S EP1 were plated into 24 wells plates and treated for 5 days with various concentrations of albendazole alone or together with MT.

LOVO cells = test: DNA laddering (apoptosis), LOVO; assay type: cell-based, human; conditions: 1 μM, 16 hours
From the text: Similar results were also obtained with the human colorectal cell line LOVO.

SKHEP-1 cells [2] = test: Cell cycle analysis by flow cytometry; assay type: cell-based, human; conditions: 3 days (FIG. 3)
Procedure: SKHEP-1 cells (5×10^4) were plated onto six-well tissue culture plates. Triplicate samples were treated with the indicated concentrations of albendazole (100, 250 and 1000 nM). The medium was changed everyday. After 72 h the relevant group of cells were collected, washed twice with phosphate buffer and treated with ribonuclease, Triton X-100 and propidium iodide (Sigma) based on the method described by Taylor [12]. The percentage of cells within the G1, S, and G2-M phases of the cell cycle were determined using a FACScan flow cytometer (Becton Dickinson FACSort) and Multifit LT cell cycle analysis software (Verity Software INC.)

SKHEP-1 cells [3] = test: Cell counts (trypan blue exclusion); assay type: cell-based, human
Procedure: SKHEP-1 cells (2.5×10^4) were plated in six well plates. The cell treatment procedure was as described for the thymidine assay. At the end of the treatment period (1, 3 or 5 days), cells were trypsinized and counted with a hemocytometer using the trypan blue exclusion method. In all experiments, cells treated with the medium containing 0.1% ethanol were taken as the control for albendazole treated cells. All counts were obtained in quadruplicate and each experiment was repeated at least twice.

Hep1-6 = test: [3H]thymidine incorporation assay, Hep1-6; assay type: cell-based, mice; conditions: 5 days
Procedure: (§1) HepG2, Hep3-B, Hep1-6, SKHEP-1, PLC/PRF/5, and HTC cells were obtained from European Collection of Cell Cultures (ECACC; U.K), Novikoff was obtained from Cancer Research Centre (DKFZ) Heidelberg, Germany. Cells were cultured in MEM or DMEM supplemented with 10% FBS, 50 units/ml penicillin, 50 units/ml streptomycin, 25 μg/ml amphotericin B (Gibco, Grand Island, N.Y.) and maintained subconfluent at 37° C. in humidified incubators containing 5% CO2. Albendazole (Sigma, Australian subsidiary) was dissolved in absolute ethanol at concentrations that were 1000-fold higher than the final medium concentration.

NIH:OVCAR-3 [4] = test: Cell count, ovarian cancer cell line; assay type: cell-based, human; conditions: OVCAR-3, 0.1 and 1 micromoles/L, evident from day 1
Procedure: Cells were treated with either the medium alone (control) or 0.1 and 1 micromoles/L of albendazole for 0, 1, 3, 6 or 10 days and the number of viable cells counted. […] This was evident from day 1 after the treatment

PLC/PRF/5 = test: [3H]thymidine incorporation assay, PLC/PRF/5; assay type: cell-based, human; conditions: 5 days
Procedure: as §1

[5] = tested on: liver, colorectal, prostate and leukeamic cell lines; test: Albendazole/ABS side by side in various cell lines (general); assay type: cell-based; conditions: 5 days
Procedure: In order to be able to test ABS, a proper solvent had to be found. […] Therefore to allow direct comparison between the 2 compounds, all subsequent experiments were run using 0.5% DMSO for both ABS and albendazole. In the cell lines examined, albendazole produced very similar results to what we had previously reported for the drug in liver cancer cells.
Both albendazole and ABS were tested side by side against various cell lines as follows: • Liver—HepGZ Hep3B, SKHEP-1 • Colorectal—170, LOVO, HT-29 • Prostate—PC3, LNCap, Du145 • Leukeamic—HL60
The fist 9 cell lines were used to compare effectiveness and potency while, the last one was used to assess toxicity on bone marrow (as a rough guide).
Cells were treated with various concentrations of each compound for a period of 5 days.

NIH:OVCAR-3 [6] = test: Thymidine assay, ovarian cancer cell line; assay type: cell-based, human
Procedure: To study the feasibility of using albendazole in the treatment of peritoneal disease, the human ovarian cancer cell line NIH:OVCAR-3 was selected. This is a cell line that grows quite slowly but is tumorogenic in nude mice therefore allowing for the drug to be studied under both in-vitro and in-vivo conditions.
After finding the right conditions for the growth of cells in culture, cells were treated for 5 days with various concentrations of albendazole.

HepG2 [7] = test: [3H]thymidine incorporation assay, HepG2; assay type: cell-based, human; conditions: 5 days
Procedure: as §1

[8] = tested on: ovarian cancer cells (NIH:OVCAR-3); test: DNA laddering (apoptosis), ovarian cancer cells; assay type: cell-based, human
Procedure: To find out the way albendazole works as an anticancer drug, a large variety of tests can be performed. One of the first is to see if albendazole induces apoptosis. This again is tested in several ways, one of the most common is to check for DNA laddering. […] This is the first time that the induction of apoptosis by albendazole has been reported.

Novikoff = test: [3H]thymidine incorporation assay, Novikoff; assay type: cell-based, rat; conditions: 5 days
Procedure: as §1

[9] = at all times after a 400 mg oral dose; cited from earlier work

CCCSc1ccc2nc(NC(=O)OC)[nH]c2c1 [albendazole, methyl 5-propylthio-1H-benzimidazole-2-yl carbamate]
growth inhibition (HepG2 [1]): no growth inhibition | DNA laddering (apoptosis) (LOVO cells): clear laddering | effect on cell cycle distribution (SKHEP-1 cells [2]; SKHEP-1, 250 nM): accumulation of cells in the G0-G1 phase | effect on cell cycle distribution (SKHEP-1 cells [2]; SKHEP-1, 1000 nM): arrest and accumulation of cells in the G2-M phase | number of viable cells compared to control (SKHEP-1 cells [3]; SKHEP-1, 1000 nM, p<0.001): significantly reduced in number | number of viable cells (SKHEP-1 cells [3]; SKHEP-1, 1, 3 or 5 days, 100, 500 or 1000 nM (FIG. 2)): dose dependent decline in the number of cells | [3H]thymidine incorporation (Hep1-6; Hep1-6, albendazole 10 nM): 97.7 ± 4.3 % control | [3H]thymidine incorporation (Hep1-6; Hep1-6, albendazole 100 nM): 79.5 ± 3.2 % control | [3H]thymidine incorporation (Hep1-6; Hep1-6, albendazole 500 nM): 28.1 ± 2.5 % control | [3H]thymidine incorporation (Hep1-6; Hep1-6, albendazole 1000 nM): 5.6 ± 0.6 % control | number of viable cells (NIH:OVCAR-3 [4]): profound reduction in cell number | [3H]thymidine incorporation (PLC/PRF/5; PLC/PRF/5, albendazole 10 nM): 92.7 ± 4.7 % control | [3H]thymidine incorporation (PLC/PRF/5; PLC/PRF/5, albendazole 100 nM): 69.4 ± 5.2 % control | [3H]thymidine incorporation (PLC/PRF/5; PLC/PRF/5, albendazole 500 nM): 26.9 ± 2.7 % control | [3H]thymidine incorporation (PLC/PRF/5; PLC/PRF/5, albendazole 1000 nM): 18.4 ± 2.1 % control | antiproliferative activity at 0.25 micromoles/L ([5]; 0.25 micromoles/L): dramatically increasing | inhibition at 1 µM ([5]; 120 h, 1 micromoles/L): ~100% | concentration at which antiproliferative activity becomes evident ([5]; 0.5% DMSO, in general): 0.01 µmol/L | inhibition at 0.25 µM (NIH:OVCAR-3 [6]; Homo sapiens, 120 h, OVCAR-3, 0.25 micromoles/L, 5 days): ~90% | inhibition at 0.5 µM (NIH:OVCAR-3 [6]; Homo sapiens, 120 h, OVCAR-3, 0.5 micromoles/L, 5 days, read-out: inhibition of cell growth): 100% | lowest concentration with an effect on cell proliferation (NIH:OVCAR-3 [6]; OVCAR-3, 5 days): 0.001 µmol/L | inhibition of proliferation (3H-thymidine uptake) (NIH:OVCAR-3 [6]; OVCAR-3 in vitro (FIG. 5)): dose dependent inhibition of proliferation | degree of activity relative to liver or colorectal cancer cells (NIH:OVCAR-3 [6]; OVCAR-3 versus liver or colorectal cancer cells, fold): ~10 | [3H]thymidine incorporation (HepG2 [7]; HepG2, albendazole 10 nM): 93.1 ± 5.6 % control | [3H]thymidine incorporation (HepG2 [7]; HepG2, albendazole 100 nM): 72.9 ± 6.3 % control | [3H]thymidine incorporation (HepG2 [7]; HepG2, albendazole 500 nM): 12.2 ± 2.9 % control | DNA laddering (apoptosis) [8]: induction of DNA laddering | [3H]thymidine incorporation (Novikoff; albendazole 10 nM): 96.5 ± 8.8 % control | [3H]thymidine incorporation (Novikoff; albendazole 100 nM): 71.6 ± 5.9 % control | [3H]thymidine incorporation (Novikoff; albendazole 500 nM): 29.2 ± 3.3 % control | [3H]thymidine incorporation (Novikoff; albendazole 1000 nM): 10.3 ± 1.8 % control | concentration of the unchanged drug [9]: below the detection limits
